# Results published in patent US10913753B2, “Thienopyridine carboxamides as ubiquitin-specific protease inhibitors” (FORMA Therapeutics, Inc., priority 2016, dated 2021).
# Assays:
# USP28 = USP28 (Homo sapiens (Human), UniProt Q96RU2); assay: Ubiquitin-Rhodamine 110 Assay for USP28 Activity; assay type: biochemical
# Description: The assay was performed in a final volume of 20 μL in assay buffer containing 20 mM Tris-HCl (pH 8.0, (1M Tris-HCl, pH 8.0 solution; Corning 46-031-CM)), 2 mM CaCl2 (1M Calcium Chloride solution; Sigma #21114) 2 mM BME (2-Mercaptoethanol; Sigma 63689-25ML -F), 0.01% Prionex (0.22 μM filtered, Sigma #G-0411), and 0.01% Triton X-100. Stock compound solutions were stored at −20° C. as 10 mM in DMSO. Up to 1 month prior to the assay, 2 mM test compounds were pre-dispensed into assay plates (Black, low volume; Corning #3820) and frozen at −20° C. Prestamped assay plates were allowed to come to room temperature on the day of the assay. For the screen, 100 nL of 2 mM was pre-dispensed for a final screening concentration of 10 μM (DMSO(fc)=0.5%). […] Plates were incubated stacked for 90 minutes at room temperature before fluorescence was read on the Envision (Excitation at 485 nm and Emission at 535 nm; Perkin Elmer) or on the PheraSTAR (Excitation at 485 nm and Emission at 535 nm; BMG Labtech).
# For follow-up studies, the assay was performed in a final volume of 15 μL in assay buffer containing 20 mM Tris-HCl (pH 8.0, (1M Tris-HCl, pH 8.0 solution; Corning 46-031-CM)), 3 mM BME (2-Mercaptoethanol; Sigma 63689-25ML-F), 0.03% BGG (0.22 μM filtered, Sigma, G7516-25G), and 0.01% Triton X-100 (Sigma, T9284-10L). Nanoliter quantities of either an 8-point or 10-point, 3-fold serial dilution in DMSO was pre-dispensed into assay plates (Perkin Elmer, ProxiPlate-384 F Plus) for a final test concentration of either 25 μM to 11 nM or 25 μM to 1.3 nM, respectively. Enzyme USP28, construct USP28 (USP28-5(1-1077)-TEV-6*His; LifeSensors) concentration and incubation times were optimized for the maximal signal-to -background while maintaining initial velocity conditions at a fixed substrate concentration. The final concentration of the enzyme in the assay was 75 pM. […] 5 μL of 2× enzyme was added to assay plates (pre-stamped with compound) preincubated with USP28 for 30 minutes and then 5 μL of 2× Ub-Rh110 was added to assay plates. Plates were incubated stacked for 20 min at room temperature before 5 μL of stop solution was added (final concentration of 10 mM citric acid (Sigma, 251275-500G)). Fluorescence was read on the Envision (Excitation at 485 nm and Emission at 535 nm; Perkin Elmer) or on the PheraSTAR (Excitation at 485 nm and Emission at 535 nm; BMG Labtech).
# (§1) For both the USP28 and USP25 assay formats, data were reported as percent inhibition compared with control wells based on the following equation: % inh=1-((FLU-AveLow)/(AveHigh−AveLow)) where FLU=measured Fluorescence, AveLow=average Fluorescence of no enzyme control (n=16), and AveHigh=average Fluorescence of DMSO control (n=16). IC50 values were determined by curve fitting of the standard 4 parameter logistic fitting algorithm included in the Activity Base software package: IDBS XE Designer Model205. Data is fitted using the Levenburg Marquardt algorithm.
# USP25 = USP25 (Homo sapiens (Human), UniProt Q9UHP3); assay: Ubiquitin-Rhodamine 110 Assay for USP25 Activity; assay type: biochemical
# Chain of USP25 (Q9UHP3 whole entry): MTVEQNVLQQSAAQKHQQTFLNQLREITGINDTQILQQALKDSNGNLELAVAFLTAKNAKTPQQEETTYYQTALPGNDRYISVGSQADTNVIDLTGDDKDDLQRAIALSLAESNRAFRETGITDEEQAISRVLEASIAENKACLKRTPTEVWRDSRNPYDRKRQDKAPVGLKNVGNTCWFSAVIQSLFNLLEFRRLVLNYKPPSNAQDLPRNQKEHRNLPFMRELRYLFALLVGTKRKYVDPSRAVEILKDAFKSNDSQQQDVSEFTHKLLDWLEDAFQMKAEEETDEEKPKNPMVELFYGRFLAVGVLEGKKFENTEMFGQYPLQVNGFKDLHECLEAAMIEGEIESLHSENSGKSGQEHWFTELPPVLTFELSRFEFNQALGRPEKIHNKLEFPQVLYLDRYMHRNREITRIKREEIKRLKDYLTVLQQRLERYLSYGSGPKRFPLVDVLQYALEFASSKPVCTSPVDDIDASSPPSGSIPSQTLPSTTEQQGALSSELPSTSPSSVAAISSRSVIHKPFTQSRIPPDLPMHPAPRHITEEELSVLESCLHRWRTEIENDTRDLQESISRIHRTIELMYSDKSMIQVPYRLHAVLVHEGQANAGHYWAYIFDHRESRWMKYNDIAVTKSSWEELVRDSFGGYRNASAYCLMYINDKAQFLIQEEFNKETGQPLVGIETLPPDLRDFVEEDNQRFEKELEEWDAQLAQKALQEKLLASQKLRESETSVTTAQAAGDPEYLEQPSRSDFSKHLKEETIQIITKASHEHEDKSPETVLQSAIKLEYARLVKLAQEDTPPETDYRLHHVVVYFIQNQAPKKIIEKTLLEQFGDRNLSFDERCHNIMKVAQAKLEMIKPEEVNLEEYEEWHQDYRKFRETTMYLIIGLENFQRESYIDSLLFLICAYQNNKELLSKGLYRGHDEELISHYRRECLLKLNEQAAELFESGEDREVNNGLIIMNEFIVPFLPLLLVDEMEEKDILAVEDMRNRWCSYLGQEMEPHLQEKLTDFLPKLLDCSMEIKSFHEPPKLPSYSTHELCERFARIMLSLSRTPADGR
# Description: The assay was performed in a final volume of 9 μL in assay buffer containing 20 mM Tris-HCl (pH 8.0, (1M Tris-HC1, pH 8.0 solution; Corning 46-031-CM)), 3 mM BME (2-Mercaptoethanol; Sigma 63689-25ML-F), 0.03% BGG (0.22 μM filtered, Sigma, G7516-25G), and 0.01% Triton X-100 (Sigma, T9284-10L). Nanoliter quantities of 10-point, 3-fold serial dilution in DMSO was pre-dispensed into 1536 assay plates (Corning, #3724BC) for a final test concentration of 25 μM to 1.3 nM, top to lowest dose, respectively. Enzyme USP25, construct USP25-His6, (Boston Biochem E-546). Concentration and incubation times were optimized for the maximal signal-to-background while maintaining initial velocity conditions at a fixed substrate concentration. The final concentration of the enzyme in the assay was 75 pM. […] 3 μL of 2× enzyme was added to assay plates (pre-stamped with compound) preincubated with […] for 30 minutes and then 3 μL of 2× Ub-Rh110 was added to assay plates. Plates were incubated for 45 minutes at room temperature before addition of 3 μL of stop solution (final concentration of 10 mM citric acid (Sigma, 251275-500G)). Fluorescence was read on the Envision (Excitation at 485 nm and Emission at 535 nm; Perkin Elmer) or on the PheraSTAR (Excitation at 485 nm and Emission at 535 nm; BMG Labtech).
# as §1
# Chain of USP28 (Q96RU2 whole entry): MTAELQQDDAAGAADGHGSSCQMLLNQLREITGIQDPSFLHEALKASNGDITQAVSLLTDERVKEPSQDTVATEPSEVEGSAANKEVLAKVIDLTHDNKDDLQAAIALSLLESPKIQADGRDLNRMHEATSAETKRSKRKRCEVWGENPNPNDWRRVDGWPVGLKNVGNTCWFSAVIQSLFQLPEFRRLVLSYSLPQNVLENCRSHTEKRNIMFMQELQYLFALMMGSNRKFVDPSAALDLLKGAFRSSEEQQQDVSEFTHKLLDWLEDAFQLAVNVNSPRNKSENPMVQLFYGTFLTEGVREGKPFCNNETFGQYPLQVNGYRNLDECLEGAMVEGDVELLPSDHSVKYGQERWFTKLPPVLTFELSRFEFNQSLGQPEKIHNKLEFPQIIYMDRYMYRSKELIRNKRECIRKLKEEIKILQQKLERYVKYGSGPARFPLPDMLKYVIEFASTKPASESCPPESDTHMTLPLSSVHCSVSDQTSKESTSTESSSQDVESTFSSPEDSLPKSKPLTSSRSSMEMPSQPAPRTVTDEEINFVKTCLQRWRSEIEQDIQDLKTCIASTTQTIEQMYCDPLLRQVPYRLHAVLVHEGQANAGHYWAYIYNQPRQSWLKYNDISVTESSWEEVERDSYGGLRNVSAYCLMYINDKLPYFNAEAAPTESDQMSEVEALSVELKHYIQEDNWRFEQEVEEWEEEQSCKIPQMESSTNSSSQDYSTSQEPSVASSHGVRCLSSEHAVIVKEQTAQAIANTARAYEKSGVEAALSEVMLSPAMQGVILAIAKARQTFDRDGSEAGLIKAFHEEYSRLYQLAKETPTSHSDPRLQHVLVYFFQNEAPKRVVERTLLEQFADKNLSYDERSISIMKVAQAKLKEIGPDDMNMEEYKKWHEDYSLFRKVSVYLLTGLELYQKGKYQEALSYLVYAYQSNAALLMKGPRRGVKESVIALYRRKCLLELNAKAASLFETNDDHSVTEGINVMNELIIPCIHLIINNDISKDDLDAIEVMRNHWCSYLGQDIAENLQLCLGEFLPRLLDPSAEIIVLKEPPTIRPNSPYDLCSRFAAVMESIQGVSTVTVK
smiles,measurement,setting,value
"Cc1ccc2c(N)c(C(=O)NC[C@H](C)c3ccc(N4CC5CCC(C4)N5)c(C#N)c3)sc2n1 (single isomer, unassigned) [Example I-110]",IC50,USP28,200 to 2000 nM
same,IC50,USP25,2000 to 10000 nM
"Cc1nc2sc(C(=O)NC[C@@H](C)c3cc(F)c(N4CC5CCC(C4)N5)cc3F)c(N)c2cc1F (single isomer, unassigned) [Example I-111]",IC50,USP28,< 200 nM
same,IC50,USP25,200 to 2000 nM
"Cc1nc2sc(C(=O)NC[C@H](C)c3cc(F)c(N4CC5CCC(C4)N5)cc3F)c(N)c2cc1F (single isomer, unassigned) [Example I-112]",IC50,USP28,200 to 2000 nM
same,IC50,USP25,2000 to 10000 nM
"Cc1ccc2c(N)c(C(=O)NCCc3ccc(C4CC5CCC(C4)N5)cc3)sc2n1 (single isomer, unassigned) [Example I-171, N-(4-(8-azabicyclo[3.2.1]octan-3-yl)phenethyl)-3-amino-6-methylthieno[2,3-b]pyridine-2-carboxamide]",IC50,USP28,200 to 2000 nM
same,IC50,USP25,200 to 2000 nM
"Cc1ccc2c(N)c(C(=O)NCCc3ccc(C4CC5CCC(C4)N5)cc3)sc2n1 (single isomer, unassigned) [Example I-172, N-(4-(8-azabicyclo[3.2.1]octan-3-yl)phenethyl)-3-amino-6-methylthieno[2,3-b]pyridine-2-carboxamide]",IC50,USP28,< 200 nM
same,IC50,USP25,< 200 nM
"Cc1ccc2c(N)c(C(=O)NCCc3ccc([C@H]4CCNC4)cc3)sc2n1 (single isomer, unassigned) [Example I-180]",IC50,USP28,< 200 nM
same,IC50,USP25,200 to 2000 nM
"Cc1ccc2c(N)c(C(=O)NCCc3ccc([C@@H]4CCNC4)cc3)sc2n1 (single isomer, unassigned) [Example I-181]",IC50,USP28,< 200 nM
same,IC50,USP25,200 to 2000 nM
"CN[C@@H]1CN(c2cc(F)c(CCNC(=O)c3sc4nc(C)ccc4c3N)cc2F)C[C@@H]1F (single isomer, unassigned) [Example I-211]",IC50,USP28,200 to 2000 nM
same,IC50,USP25,2000 to 10000 nM
"CN[C@H]1CN(c2cc(F)c(CCNC(=O)c3sc4nc(C)ccc4c3N)cc2F)C[C@H]1F (single isomer, unassigned) [Example I-212]",IC50,USP28,200 to 2000 nM
same,IC50,USP25,200 to 2000 nM
"CN[C@@H]1CN(c2cc(F)c(CCNC(=O)c3sc4nc(C)ccc4c3N)cc2F)C[C@H]1F (single isomer, unassigned) [Example I-213]",IC50,USP28,200 to 2000 nM
same,IC50,USP25,200 to 2000 nM
"CN[C@H]1CN(c2cc(F)c(CCNC(=O)c3sc4nc(C)ccc4c3N)cc2F)C[C@@H]1F (single isomer, unassigned) [Example I-214]",IC50,USP28,200 to 2000 nM
same,IC50,USP25,2000 to 10000 nM
"Cc1ccc2c(N)c(C(=O)NCCc3ccc(N4CCC5(CCCNC5)C4)cc3)sc2n1 (single isomer, unassigned) [Example I-216]",IC50,USP28,200 to 2000 nM
same,IC50,USP25,200 to 2000 nM
"Cc1ccc2c(N)c(C(=O)NCCc3ccc(O[C@@H]4COC5(CNC5)C4)cc3)sc2n1 (single isomer, unassigned) [Example I-218]",IC50,USP28,200 to 2000 nM
same,IC50,USP25,200 to 2000 nM
"Cc1ccc2c(N)c(C(=O)NCCc3ccc(O[C@H]4COC5(CNC5)C4)cc3)sc2n1 (single isomer, unassigned) [Example I-219]",IC50,USP28,200 to 2000 nM
same,IC50,USP25,200 to 2000 nM
"C[C@H](O)c1ccc2c(N)c(C(=O)NCCc3ccc(N4CCNCC4)cc3)sc2n1 (single isomer, unassigned) [Example I-221]",IC50,USP28,10000 to 25000 nM
same,IC50,USP25,10000 to 25000 nM
"C[C@@H](O)c1ccc2c(N)c(C(=O)NCCc3ccc(N4CCNCC4)cc3)sc2n1 (single isomer, unassigned) [Example I-222]",IC50,USP28,200 to 2000 nM
same,IC50,USP25,200 to 2000 nM
COc1cc(N2CCNCC2)ccc1CCNC(=O)c1sc2nc(C)ccc2c1N [Compound I-2],IC50,USP28,< 200 nM
same,IC50,USP25,< 200 nM
Cc1ccc2c(N)c(C(=O)NCCc3ccc(N4CCNCC4)cc3F)sc2n1 [Compound I-5],IC50,USP28,200 to 2000 nM
same,IC50,USP25,200 to 2000 nM
Cc1ccc2c(N)c(C(=O)NCCc3ccc(N4CCNCC4)c(C4CC4)c3)sc2n1 [Compound I-6],IC50,USP28,< 200 nM
same,IC50,USP25,200 to 2000 nM
Cc1cc(C(F)(F)F)c2c(N)c(C(=O)NCCc3ccc(N4CCNCC4)c(F)c3)sc2n1 [Compound I-7],IC50,USP28,200 to 2000 nM
same,IC50,USP25,< 200 nM
Cc1ccc2c(N)c(C(=O)NCCc3ccc(-c4cnn5c4CNCC5)cc3)sc2n1 [Compound I-12],IC50,USP28,< 200 nM
same,IC50,USP25,200 to 2000 nM
Cc1ccc2c(N)c(C(=O)NCCc3ccc(C4CCNCC4)cc3)sc2n1 [Compound I-13],IC50,USP28,< 200 nM
same,IC50,USP25,200 to 2000 nM
Cc1cc(C(F)F)c2c(N)c(C(=O)NCCc3ccc(N4CCNCC4)cc3)sc2n1 [Compound I-14],IC50,USP28,< 200 nM
same,IC50,USP25,< 200 nM
Cc1ccc2c(N)c(C(=O)NCCc3ccc(N4CC5CCC(C4)N5)cc3)sc2n1 [Compound I-15],IC50,USP28,< 200 nM
same,IC50,USP25,200 to 2000 nM
Nc1cc(C(F)F)c2c(N)c(C(=O)NCCc3ccc(N4CCNCC4)cc3)sc2n1 [Compound I-16],IC50,USP28,< 200 nM
same,IC50,USP25,200 to 2000 nM
Cc1cc(N)nc2sc(C(=O)NCCc3ccc(N4CCNCC4)c(Cl)c3)c(N)c12 [Compound I-17],IC50,USP28,200 to 2000 nM
same,IC50,USP25,2000 to 10000 nM
Cc1ccc2c(N)c(C(=O)NCCc3ccc(N4CCNCC4)c4c3CCC4)sc2n1 [Compound I-18],IC50,USP28,< 200 nM
same,IC50,USP25,< 200 nM
Cc1ccc2c(N)c(C(=O)NCCc3ccc(N4CC5CCC(C4)N5)c(Cl)c3)sc2n1 [Compound I-20],IC50,USP28,200 to 2000 nM
same,IC50,USP25,200 to 2000 nM
Cc1ccc2c(N)c(C(=O)NCCc3ccc(N4CC5CCC(C4)N5)cc3Cl)sc2n1 [Compound I-21],IC50,USP28,< 200 nM
same,IC50,USP25,< 200 nM
Cc1ccc2c(N)c(C(=O)NCCc3ccc(N4CC5CCC(C4)N5)cc3F)sc2n1 [Compound I-22],IC50,USP28,< 200 nM
same,IC50,USP25,200 to 2000 nM
Cc1ccc2c(N)c(C(=O)NCCc3ccc(N4CCNCC4)c(-c4ccccc4)c3)sc2n1 [Compound I-23],IC50,USP28,200 to 2000 nM
same,IC50,USP25,2000 to 10000 nM
COc1cc(C)nc2sc(C(=O)NCCc3ccc(N4CCNCC4)cc3)c(N)c12 [Compound I-24],IC50,USP28,2000 to 10000 nM
same,IC50,USP25,10000 to 25000 nM
Cc1ccc2c(N)c(C(=O)NCCc3ccc(N4CCN(CC5CCO5)CC4)cc3)sc2n1 (stereo not shown) [Compound I-25],IC50,USP28,200 to 2000 nM
same,IC50,USP25,2000 to 10000 nM
COCCN1CCN(c2ccc(CCNC(=O)c3sc4nc(C)ccc4c3N)cc2)CC1 [Compound I-26],IC50,USP28,200 to 2000 nM
same,IC50,USP25,2000 to 10000 nM
Nc1c(C(=O)NCCc2ccc(N3CCNCC3)cc2)sc2ncc(C(F)F)cc12 [Compound I-27],IC50,USP28,2000 to 10000 nM
same,IC50,USP25,10000 to 25000 nM
Nc1c(C(=O)NCCc2ccc(N3CCNCC3)cc2)sc2ncc3c(c12)CCC3 [Compound I-28],IC50,USP28,2000 to 10000 nM
same,IC50,USP25,2000 to 10000 nM
Nc1c(C(=O)NCCc2ccc(N3CCNCC3)cc2)sc2nc3c(cc12)CCC3 [Compound I-29],IC50,USP28,2000 to 10000 nM
same,IC50,USP25,2000 to 10000 nM
Nc1c(C(=O)NCCc2ccc(N3CCNCC3)cc2)sc2nc3c(cc12)CCCC3 [Compound I-30],IC50,USP28,2000 to 10000 nM
same,IC50,USP25,10000 to 25000 nM
